# Experimental data reported in ChEMBL document CHEMBL3301562, “MMV Box screening against Plasmodium falciparum protein kinases and aminoacyl tRNA synthetases”.
# What was measured:
# Type in all cases: functional
# [1] = target: T1, Putative uncharacterized protein pk7 (Plasmodium falciparum, UniProt O96214); assay: Final concentrations were 1 uM ATP, 2 mM DTT, 20 mM MgCl2, 2 mM MnCl2, 0.01% BSA, and 6 ug/ml PK7, in a buffer of 20 mM Tris-HCl (pH 7.5). The enzyme itself was the only substrate present (since autophosphorylation occurs); 100 uM 1NA-PP1 was used as a control inhibitor. Incubation time was 3 hours.
# T1 sequence (O96214 whole entry): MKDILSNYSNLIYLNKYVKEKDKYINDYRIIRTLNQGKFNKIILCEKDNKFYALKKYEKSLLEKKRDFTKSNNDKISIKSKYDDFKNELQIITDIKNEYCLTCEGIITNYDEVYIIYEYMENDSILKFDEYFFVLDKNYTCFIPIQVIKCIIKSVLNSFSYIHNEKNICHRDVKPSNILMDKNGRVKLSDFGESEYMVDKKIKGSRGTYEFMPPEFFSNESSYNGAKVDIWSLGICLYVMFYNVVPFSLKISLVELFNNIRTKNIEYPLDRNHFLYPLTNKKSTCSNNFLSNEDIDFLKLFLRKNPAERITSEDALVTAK
# [2] = target: T2, Cdk-related protein kinase 6 (Plasmodium falciparum, UniProt O77239); assay: Final concentrations were 1.5 uM ATP, 5 mM MnCl2, and 15 ug/ml PK6 in a buffer of 100 mM Tris-HCl (pH 7.5). 50 ug/mL MBP was provided as the substrate; 10 uM staurosporine was used as a control inhibitor. Incubation time was 3 hours and 40 minutes.The catalytic activity of each kinase was considered proportional to ATP consumed, as determined from measurements of residual [ATP] with the luciferase-based reagent Kinase-Glo (Promega) following incubation. Luminescence (proportional to residual [ATP]) was measured on the plate readers FLx800 (BioTek Instruments, Winooski, VT, USA) and MicroBeta2.
# T2 sequence (O77239 whole entry): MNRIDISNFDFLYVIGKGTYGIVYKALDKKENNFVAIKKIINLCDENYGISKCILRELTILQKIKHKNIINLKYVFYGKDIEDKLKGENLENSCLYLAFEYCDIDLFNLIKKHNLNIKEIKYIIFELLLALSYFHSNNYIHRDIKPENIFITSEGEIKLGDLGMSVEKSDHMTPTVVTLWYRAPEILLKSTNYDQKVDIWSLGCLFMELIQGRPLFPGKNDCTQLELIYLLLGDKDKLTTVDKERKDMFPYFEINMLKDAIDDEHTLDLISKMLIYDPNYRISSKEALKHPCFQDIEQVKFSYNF
# [3] = target: Lysine--tRNA ligase (Plasmodium falciparum (isolate 3D7), UniProt Q8IDJ8); assay: MMV: KRS recombinant Plasmodium falciparum Lysyl-tRNA-synthetase, assay with yeast tRNA, ATP, and lysine and 3 uM MMV malaria box compound, assay read out with kinase glo as % inhibition.
# Sequence of Lysine--tRNA ligase (Q8IDJ8 whole entry): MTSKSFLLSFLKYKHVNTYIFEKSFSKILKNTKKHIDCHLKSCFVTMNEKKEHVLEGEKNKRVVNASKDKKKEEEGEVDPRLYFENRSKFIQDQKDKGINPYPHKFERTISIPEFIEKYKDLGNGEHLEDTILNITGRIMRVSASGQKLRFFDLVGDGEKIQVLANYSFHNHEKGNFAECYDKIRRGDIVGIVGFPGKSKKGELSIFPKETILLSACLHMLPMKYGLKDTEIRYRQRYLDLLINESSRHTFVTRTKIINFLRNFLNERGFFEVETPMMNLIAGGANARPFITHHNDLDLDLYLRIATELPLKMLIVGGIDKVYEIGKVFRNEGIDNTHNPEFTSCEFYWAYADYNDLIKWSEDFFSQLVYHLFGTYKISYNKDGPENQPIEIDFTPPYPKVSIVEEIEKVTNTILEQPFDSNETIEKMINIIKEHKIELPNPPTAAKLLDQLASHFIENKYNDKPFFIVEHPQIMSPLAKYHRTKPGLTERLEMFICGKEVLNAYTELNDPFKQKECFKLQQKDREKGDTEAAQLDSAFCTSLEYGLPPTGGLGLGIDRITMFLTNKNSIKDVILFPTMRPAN
# [4] = target: T3, Mitogen-activated protein kinase (Plasmodium falciparum, UniProt Q25917); assay: Final concentrations were 1 uM ATP, 0.5 mM DTT, 1 mM MgCl2, 0.5 mg/mL BSA, and 10 ug/ml MAP2 in a buffer of 50 mM HEPES (pH 7.0). 0.5 mg/mL histone III-S served as the substrate (13); 100 uM AMP-PNP, an ATP analog, was used as a control inhibitor. Incubation time was 4 hours.
# T3 sequence (Q25917 whole entry): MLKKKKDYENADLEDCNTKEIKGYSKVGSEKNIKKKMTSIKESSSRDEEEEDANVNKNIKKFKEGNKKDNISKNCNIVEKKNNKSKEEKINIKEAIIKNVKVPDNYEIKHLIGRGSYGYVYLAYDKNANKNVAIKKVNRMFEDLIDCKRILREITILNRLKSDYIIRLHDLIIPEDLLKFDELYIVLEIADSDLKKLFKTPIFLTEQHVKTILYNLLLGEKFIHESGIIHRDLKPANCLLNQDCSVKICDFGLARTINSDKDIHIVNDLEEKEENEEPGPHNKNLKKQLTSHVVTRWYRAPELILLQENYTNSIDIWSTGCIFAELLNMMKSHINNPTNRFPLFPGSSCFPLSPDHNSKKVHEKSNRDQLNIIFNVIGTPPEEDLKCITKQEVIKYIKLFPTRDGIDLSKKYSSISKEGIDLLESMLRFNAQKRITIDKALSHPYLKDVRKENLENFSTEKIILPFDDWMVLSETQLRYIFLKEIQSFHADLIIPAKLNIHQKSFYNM
# [5] = target: T4, Proline--tRNA ligase (Plasmodium falciparum (isolate 3D7), UniProt Q8I5R7); assay: MMV: ProRS recombinant Plasmodium falciparum Prolyl-tRNA-synthetase, assay with yeast tRNA, ATP, and proline and 3 uM MMV malaria box compound, assay read out with kinase glo as % inhibition.
# T4 sequence (Q8I5R7 whole entry): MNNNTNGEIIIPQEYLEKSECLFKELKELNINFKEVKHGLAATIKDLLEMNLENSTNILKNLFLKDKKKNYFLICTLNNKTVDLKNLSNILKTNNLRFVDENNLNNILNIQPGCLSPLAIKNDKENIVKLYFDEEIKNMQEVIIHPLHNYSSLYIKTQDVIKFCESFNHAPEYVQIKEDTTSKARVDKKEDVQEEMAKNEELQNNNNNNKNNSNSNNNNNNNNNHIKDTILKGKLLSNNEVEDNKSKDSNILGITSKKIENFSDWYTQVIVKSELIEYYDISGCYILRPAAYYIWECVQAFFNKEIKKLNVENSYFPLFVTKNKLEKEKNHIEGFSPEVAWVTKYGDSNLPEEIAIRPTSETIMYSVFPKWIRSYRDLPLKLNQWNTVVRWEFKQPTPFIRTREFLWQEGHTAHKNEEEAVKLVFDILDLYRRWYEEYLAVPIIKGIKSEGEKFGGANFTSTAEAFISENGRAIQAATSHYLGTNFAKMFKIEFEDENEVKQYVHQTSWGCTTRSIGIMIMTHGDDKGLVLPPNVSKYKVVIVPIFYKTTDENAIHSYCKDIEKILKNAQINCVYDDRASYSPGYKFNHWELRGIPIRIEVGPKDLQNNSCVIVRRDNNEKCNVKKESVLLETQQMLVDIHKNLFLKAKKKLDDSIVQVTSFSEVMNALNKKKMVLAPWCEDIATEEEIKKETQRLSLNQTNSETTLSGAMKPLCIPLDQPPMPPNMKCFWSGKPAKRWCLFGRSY
# [6] = target: T5, Calcium-dependent protein kinase 4 (Plasmodium falciparum (isolate 3D7), UniProt Q8IBS5); assay: MMV: CDPK4 Protein kinase inhibition assay using recombinant PfCDPK4, syntide2 peptide substrate, ATP and KinaseGlo to measure % inhibition at 1 uM MMV box compound.
# T5 sequence (Q8IBS5 whole entry): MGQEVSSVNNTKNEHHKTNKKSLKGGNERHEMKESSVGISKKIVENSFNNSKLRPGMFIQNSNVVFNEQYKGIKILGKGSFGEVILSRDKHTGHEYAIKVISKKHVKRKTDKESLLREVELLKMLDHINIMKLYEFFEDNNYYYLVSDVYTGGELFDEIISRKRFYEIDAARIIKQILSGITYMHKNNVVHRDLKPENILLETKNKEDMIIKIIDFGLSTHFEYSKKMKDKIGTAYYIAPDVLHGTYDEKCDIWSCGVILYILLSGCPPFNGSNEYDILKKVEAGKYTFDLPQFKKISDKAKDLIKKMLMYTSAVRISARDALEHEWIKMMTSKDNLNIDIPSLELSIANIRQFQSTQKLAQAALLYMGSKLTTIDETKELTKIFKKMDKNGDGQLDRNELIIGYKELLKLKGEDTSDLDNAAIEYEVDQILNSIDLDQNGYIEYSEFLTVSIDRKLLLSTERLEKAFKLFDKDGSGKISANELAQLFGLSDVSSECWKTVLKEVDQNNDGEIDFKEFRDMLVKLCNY
# [7] = target: Calcium-dependent protein kinase 1 (Plasmodium falciparum, UniProt P62344); assay: MMV: CDPK1 Protein kinase inhibition assay using recombinant PfCDPK1, syntide 2 peptide substrate, ATP and KinaseGlo to measure % inhibition at 1 uM MMV box compound.
# Sequence of Calcium-dependent protein kinase 1 (P62344 whole entry): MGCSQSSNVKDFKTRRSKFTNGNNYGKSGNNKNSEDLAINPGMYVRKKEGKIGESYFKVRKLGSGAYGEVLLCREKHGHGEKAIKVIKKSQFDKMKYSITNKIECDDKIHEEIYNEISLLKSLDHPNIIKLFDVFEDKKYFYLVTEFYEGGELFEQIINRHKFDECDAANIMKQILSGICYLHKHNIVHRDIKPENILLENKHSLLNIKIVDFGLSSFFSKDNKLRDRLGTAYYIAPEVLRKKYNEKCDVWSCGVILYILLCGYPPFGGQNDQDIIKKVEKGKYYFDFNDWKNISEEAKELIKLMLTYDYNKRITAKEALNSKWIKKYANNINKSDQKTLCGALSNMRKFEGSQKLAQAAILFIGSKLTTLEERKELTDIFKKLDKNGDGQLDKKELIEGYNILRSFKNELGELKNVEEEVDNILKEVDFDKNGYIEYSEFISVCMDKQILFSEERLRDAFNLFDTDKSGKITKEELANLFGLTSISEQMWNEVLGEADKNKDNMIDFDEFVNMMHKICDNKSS
Compound,IC50 [1] [nM],IC50 [2] [nM],IC50 [3] [nM],IC50 [4] [nM],IC50 [5] [nM],IC50 [6] [nM],IC50 [7] [nM]
O=C(Nc1ccc(Cl)c(Cl)c1)Nc1ccc(Cl)c(Cl)c1,> 1000,> 1000,> 2500,> 1000,> 2500,> 1000,> 1000
N=c1n(CCN2CCCCC2)c2ccccc2n1CC(=O)c1ccc(Cl)c(Cl)c1,> 1000,> 1000,> 2500,> 1000,> 2500,> 1000,> 1000
COc1ccc(-c2nc(N3CCN(C(=O)C4CCCCC4)CC3)c3c4c(sc3n2)CCCC4)cc1,> 1000,> 1000,> 2500,> 1000,> 2500,> 1000,> 1000
COc1cc(C(=O)Nc2nc3c(cc4c5c(cccc53)CC4)s2)cc(OC)c1OC,> 1000,> 1000,> 2500,> 1000,> 2500,> 1000,> 1000
COc1ccc(CCN2C(=O)c3[nH]nc(-c4cc(Cl)c(C)cc4O)c3C2c2ccccc2F)cc1 (stereo not given),> 1000,> 1000,> 2500,> 1000,> 2500,> 1000,> 1000
CCOc1ccc(N2C(N)=NC(N)=NC2(C)C)cc1,> 1000,> 1000,> 2500,> 1000,> 2500,> 1000,> 1000
O=C(CCl)NCCOc1ccc(Cl)cc1Cl,> 1000,> 1000,> 2500,> 1000,> 2500,> 1000,> 1000
Oc1ccc(-c2nc(-c3ccc4oc5ccc(-c6[nH]c(-c7ccc(O)cc7)nc6-c6ccccc6)cc5c4c3)c(-c3ccccc3)[nH]2)cc1,> 1000,> 1000,> 2500,> 1000,> 2500,> 1000,> 1000
CCOc1ccc(CN2CCN(CC(O)COc3ccc(OCC(O)CN4CCN(Cc5ccc(OCC)cc5)CC4)cc3)CC2)cc1 (stereo not given),> 1000,> 1000,> 2500,> 1000,> 2500,> 1000,> 1000
COc1ccc(CCn2c(=N)c(C(=O)NCc3cccnc3)cc3c(=O)n4cccc(C)c4nc32)cc1,> 1000,> 1000,> 2500,> 1000,> 2500,> 1000,> 1000
COc1ccc(Nc2cc(C)nc(NCc3ccccc3)n2)cc1,> 1000,> 1000,> 2500,> 1000,> 2500,> 1000,> 1000
Oc1ccc2ccccc2c1CNc1nc2ccccc2[nH]1,> 1000,> 1000,> 2500,> 1000,> 2500,> 1000,> 1000
O=C1c2ccc3c4c(ccc(c24)C(=O)N1CCCCO)C(=O)N(CCCCO)C3=O,> 1000,> 1000,> 2500,> 1000,> 2500,> 1000,> 1000
COc1ccc(C(=O)C(CCC(CNC(C)(C)C)C(=O)c2ccc(OC)cc2)CNC(C)(C)C)cc1 (stereo not given),> 1000,> 1000,> 2500,> 1000,> 2500,> 1000,> 1000
COc1cc(-c2nc(-c3ccccc3)c(-c3ccccc3)[nH]2)cc(OC)c1O,> 1000,> 1000,> 2500,> 1000,> 2500,> 1000,> 1000
OC(CNC1CCCCC1)Cn1c2ccc(I)cc2c2cc(I)ccc21 (stereo not given),> 1000,> 1000,> 2500,> 1000,> 2500,> 1000,> 1000
COc1cc(CNCCc2ccc(Cl)cc2)cc(OC)c1O,> 1000,> 1000,> 2500,> 1000,> 2500,> 1000,> 1000
Oc1ccc(Br)cc1CN1CCN(Cc2ccc(Cl)cc2)CC1,> 1000,> 1000,> 2500,> 1000,> 2500,> 1000,> 1000
Cc1ccc(C)c(-c2csc(Nc3ccc(C)c(C)c3)n2)c1,> 1000,> 1000,> 2500,> 1000,> 2500,> 1000,> 1000
CC(C)(C)c1ccc(C2CC3=Nc4ccccc4N(C(=O)c4ccccc4Cl)C(c4ccc(F)cc4)C3=C(O)C2)cc1 (stereo not given),> 1000,> 1000,> 2500,> 1000,> 2500,> 1000,> 1000
